Measurements from patent US10675293B2, “Nucleoside agents for the reduction of the deleterious activity of extended nucleotide repeat containing genes” (The Board of Trustees of the Leland Stanford Junior …, priority 2015, dated 2020).
Entries after “also recorded” stand apart in the source; their conditions may differ.

Assays:
[1] = tested on: mutant Huntingtin protein; assay: Western blot of mutant HTT in Huntington's disease patient iPSC ND36999; type: cell-based, human; settings: iPSC with 180 CAG repeats, 24 hr
Experimental: (§1) Cell samples were lysed in 30 mM Tris-HCl, pH 8.0, 5 mM NaCl, 0.1% Triton X-100 for 10 min on ice. The supernatants from spinning (14 k rpm for 10 min) were collected. The protein concentrations were determined by BCA assay (Pierce, ThermoFisher). Equal amounts of protein were loaded onto 4-12% gel. After electrophoresis, the gels were transferred to nitrocellulose membranes by wet transfer at 35V for 16 hr. The protein level of mutant HTT, total HTT and tubulin were determined by immunoblotting with anti-poly Glutamine (MAB1574 from Millipore), anti-Huntingtin protein (MAB2166 from Millipore) and anti-alpha tubulin (AJ1034a from ABGENT). Blots were imaged on a Li-Cor Odyssey infrared imager. The bands intensities were determined by Li-Cor Odyssey software.
(§2) To test whether the nucleoside 6-Azauridine (HD101) and (−)-6-Azauridine 2′,3′,5′-triacetate (HD106) can affect the expression of proteins with long polyQ domains, one iPSC (induced pluripotent stem cell) line ND36999, which was derived from a Huntington's disease patient who carries one allele of mutant htt gene with 180 CAG repeats, was purchased from the Coriell Institute. The iPSCs were plated into a 24-well plate coated with Matrigel. […] Cells were lysed and the protein concentrations were determined by BCA assay. […] The image (FIG. 10) was taken and the quantification was made by Li-Cor Odyssey imaging system.

[2] = molecular target: T1, Supt4h-YC / Supt5h NGN-YN interaction (Homo sapiens, UniProt O00267+P63272); assay: Bimolecular fluorescence complementation (BiFC) assay in 2-PN4 stable cells; type: cell-based
T1 construct: NGN-YN is a genetic engineered protein in which Supt5h NGN domain is fused to YFP YN; expressed in transfected cells
Experimental: Human Supt4h and Supt5hNGN were fused in-frame with the YC and YN respectively. The YN and YC represent the N- and C-terminal domain of yellow fluorescent protein Venus. To prevent a change in protein folding caused by the conjugation of two polypeptides (Kerppola, “Design and implementation of bimolecular fluorescence complementation (BiFC) assays for the visualization of protein interactions in living cells,” Nature protocols (2006) 1:1278-1286), a protein linker containing additional 10 amino acid residues was included in the fusion protein. Also, extra amino acids GSHM were incorporated into the Supt5hNGN to increase its protein stability (Wenzel et al., “Crystal structure of the human transcription elongation factor DSIF hSpt4 subunit in complex with the hSpt5 dimerization interface,” The Biochemical journal (2010) 425:373-380). Supt4h, NGN, YC, and YN were amplified by PCR to generate DNA fragments containing the nucleotide sequence of protein linker. Supt4h and NGN PCR products then were mixed with the PCR product of YN or YC for secondary overlapping PCR. Finally, the resulting Supt4h-YC and NGN-YN DNA fragment was cloned into plasmid vector pcDNA3-HA and pFLAG-CMV-2 respectively.
(§3) Tet-on HeLa cells were transfected with linearized pTRE-HA-Supt4h-VC-Flag-NGN-VN plasmid construct using LipofectAMINE 2000 (Invitrogen). After transfection, cells were cultured initially in growth medium containing puromycin (1 μg/ml) and then selected for clones that show YFP fluorescence in the presence of tetracycline (4 μg/ml). The stable line having the strongest fluorescence signal was isolated and designated as 2-PN4. Likewise, 21-VS stable line was created using pTRE-HA-Venus.
(§4) Stable lines 2-PN4 and 21-VS were pre-cultured in 6-well plates, followed by an incubation of Doxycycline (4 μg/ml) together with various concentrations of chemical compounds for 24 hr. Cells were washed with PBS (Sigma) and monitored by microscope (20× magnification). Photos were taken using Nikon D500 camera with a setting of ISO 1600, shutter 1/200 for the light images, and shutter ½ for the fluorescence images. For quantification of fluorescence intensity, 5 photos with similar cell number were taken and the fluorescence signal was measured by Metamorph software individually. The average of overall fluorescence signal was determined and compared to the one observed in DMSO-treated control sample.
For the purpose of high-throughput drug screening, based on the BiFC method as mentioned above, we have created a stable cell line that co-expresses NGN-YN and Supt4h-YC under the control of a tet-on inducible promoter. […] If the complementation that is driven by NGN and Supt4h interaction is inhibited by a given test compound, the de novo YFP fluorescence signal is affected. […]

21-VS cells (HA-Venus) = assay: Control fluorescence of 21-VS stable cells expressing intact Venus; type: cell-based; settings: higher concentration, where BiFC reduction has reached its plateau
Experimental: The HA-Supt4h-YC and FLAG-NGN-YN fragments were amplified by PCR using plasmid constructs described above and sub-cloned individually into the pTRE-tight-BI vector (Clontech Laboratories), which contain a bi-directional CMV promoter under the control of tetracycline. The coding sequence of yellow fluorescence protein Venus with a HA-epitope in its N-terminus was PCR-amplified and cloned into the vector to generate pTRE-HA-Venus.
as §3, with “Likewise, 21-VS stable line was created using pTRE-HA-Venus.” left out
as §4, with “For quantification of fluorescence intensity, 5 photos with similar cell number were taken and the fluorescence signal was measured by Metamorph software individually.” left out, “sample. […]” for “sample.”

total Huntingtin protein = assay: Western blot of total HTT in Huntington's disease patient iPSC ND36999; type: cell-based, human; settings: iPSC with 180 CAG repeats, 24 hr
Experimental: as §1, §2

[3] = tested on: Supt4h-YC and NGN-YN protein expression; assay: Western blot of Supt4h-YC and NGN-YN protein levels in 2-PN4 cells; type: cell-based, human
Experimental: As described (Liu et al., “Spt4 is selectively required for transcription of extended trinucleotide repeats,” Cell (2012) 148:690-701), equal amounts of protein were resolved by electrophoresis on 12% sodium dodecyl sulfate (SDS)-polyacrylamide gels, and transferred onto nitrocellulose membranes (nitrocellulose, Waterman 0.45 μM, NBA085C). After blocking with 5% low-fat milk in Tris-buffer saline containing 0.1% Tween-20, membranes were probed with primary antibodies, incubated with a horseradish peroxidase (HRP)-conjugated secondary antibody, and detected by ECL reagent (enhanced chemiluminescence, PerkinElmer).

O=c1cnn([C@@H]2O[C@H](CO)[C@@H](O)[C@H]2O)c(=O)[nH]1 [HD101, 6-Azauridine]
mutant Huntingtin protein level [1]: preferentially decrease mutant Huntingtin protein in a dose dependent manner; also recorded: reduced mutant huntingtin expression in a dose dependent manner | reduction of BiFC signal compared to mock controls ([2]; 0.02 μM, 24 hr): approximately 70% | BiFC fluorescence signal of 2-PN4 cells ([2]; various concentrations, 24 hr with Doxycycline 4 μg/ml): inhibits the fluorescence signal of BiFC | fluorescence of 21-VS cells (21-VS cells (HA-Venus)): markedly affected | total Huntingtin protein expression level (total Huntingtin protein): little effect | protein expression of Supt4h-YC and NGN-YN [3]: does not decrease the BiFC signal via a change in the protein level
